Laboratory results taken from PMC4948833, “A Sensitive and Robust High-Throughput Screening Assay for Inhibitors of the Chikungunya Virus nsP1 Capping Enzyme” (PLoS ONE, 2016).

Legend:
[1] = test system: CHIKV nsP1 guanylation activity; assay: Guanylation assay, covalent nsP1-GTP-680 formation, SDS-PAGE fluorescence; conditions: for Average POC: mean of replicates; for Average POC / Percent of Control: 100 μM analog, Fig 4 data; for Percent of Control: single replicates, scaled guanylation; for ability to inhibit nsP1 guanylation (in words): 100 μM of each GTP analog, Fig 4; for ability to inhibit nsP1 guanylation (in words) / effect on nsP1 guanylation activity (in words): 1 hour; for effect on nsP1 guanylation activity (in words): 100 μM GTP, 100 μM SAM or both, Fig 2; for % of control, mean of replicates: mean of n = 3, 100 uM, given as fraction, Fig 2 data
CHIKV nsP1 = assay: HTS validation potency repeatability, EC50 of GTP analogs in two independent FP runs
[2] = test system: CHIKV nsP1 GTP binding site; assay: FP competition assay, displacement of GTP-Bodipy by GTP and RNA cap analogs (apparent Ki / EC50); conditions: for affinity for nsP1 GTP binding site / ability to compete with GTP-Bodipy (in words): FP competition, compared with GTP; for Ki: read-out: Average Ki, apparent Ki, 500 nM nsP1, 10 nM GTP-Bodipy, 1 hour 25°C

SMILES | Average POC [1] | Percent of Control ([1]; 100 µM) | Geometric Mean Potency (CHIKV nsP1; first set of rows) | Geometric Mean Potency (CHIKV nsP1; second set of rows) | affinity for nsP1 GTP binding site / ability to compete with GTP-Bodipy (in words) [2] | Ki [2] [µM] | ability to inhibit nsP1 guanylation (in words) [1] | also measured
Nc1ncnc2c1ncn2[C@@H]1O[C@H](COP(=O)(O)OP(=O)(O)OP(=O)(O)O)[C@@H](O)[C@H]1O [ATP] | 73.0319 | 67.4851 | 4.371 | 4.429 | six fold affinity reduction | 3.34 |  | Percent of Control ([1]; listed as ATP2, 100 µM): 83.2927; Percent of Control ([1]; listed as ATP3, 100 µM): 68.3179
Nc1ccn([C@@H]2O[C@H](COP(=O)(O)OP(=O)(O)OP(=O)(O)O)[C@@H](O)[C@H]2O)c(=O)n1 [CTP] | 49.6579 | 48.7482 | 4.146 | 4.036 | markedly decreased ability to outcompete GTP-Bodipy | 6.94 |  | Percent of Control ([1]; listed as CTP2, 100 µM): 53.2419; Percent of Control ([1]; listed as CTP3, 100 µM): 46.9836
Nc1nc2c(ncn2[C@@H]2O[C@H](COP(=O)(O)OP(=O)(O)O)[C@@H](O)[C@H]2O)c(=O)[nH]1 [GDP] | 78.8606 | 63.0295 | 4.329 | 4.21 | slight decrease in affinity | 4.89 |  | Percent of Control ([1]; listed as GDP2, 100 µM): 85.6756; Percent of Control ([1]; listed as GDP3, 100 µM): 87.8767
Nc1nc2c(ncn2[C@@H]2O[C@H](COP(=O)(O)O)[C@@H](O)[C@H]2O)c(=O)[nH]1 [GMP] | 99.8208 | 96.3413 | 3.81 | 3.81 | decrease of GMP affinity was quite large | 133 | least ability to inhibit guanylation | Percent of Control ([1]; listed as GMP2, 100 µM): 112.788; Percent of Control ([1]; listed as GMP3, 100 µM): 90.3332
Nc1nc2c(ncn2[C@@H]2O[C@H](COP(=O)(O)OP(=O)(O)OP(=O)(O)O)[C@@H](O)[C@H]2O)c(=O)[nH]1 [GTP] | 44.8021 | 42.0576 | 5.173 | 5.17 |  | 0.546 | greatest ability to in inhibit nsP1 guanylation activity | effect on nsP1 guanylation activity (in words) [1]: significantly diminished guanylation activity; % of control, mean of replicates [1]: 0.417; Percent of Control ([1]; listed as GTP2, 100 µM): 51.0432; Percent of Control ([1]; listed as GTP3, 100 µM): 41.3055; EC50 ([2]; read-out: EC50 concentration of GTP, FP displacement of GTP-Bodipy, used for midpoint signal wells): 6.8 µM
Nc1nc2c(ncn2[C@@H]2O[C@H](COP(=O)(O)OP(=O)(O)OP(=O)(O)OC[C@H]3O[C@@H](n4cnc5c(N)ncnc54)[C@H](O)[C@@H]3O)[C@@H](O)[C@H]2O)c(=O)[nH]1 [GpppA] | 66.8805 | 57.9814 | 4.749 | 4.683 | better competitor than me^7GpppA | 1.89 |  | Percent of Control ([1]; listed as GpppA2, 100 µM): 71.1847; Percent of Control ([1]; listed as GpppA3, 100 µM): 71.4754
Nc1nc2c(ncn2[C@@H]2O[C@H](CO)[C@@H](O)[C@H]2O)c(=O)[nH]1 [Guanosine] | 109.076 | 100.679 |  |  | not able to calculate a Ki |  | least ability to inhibit guanylation | Percent of Control ([1]; listed as Guanosine2, 100 µM): 132.685; Percent of Control ([1]; listed as Guanosine3, 100 µM): 93.8632
O=c1[nH]cnc2c1ncn2[C@@H]1O[C@H](COP(=O)(O)OP(=O)(O)OP(=O)(O)O)[C@@H](O)[C@H]1O [ITP] | 74.6508 | 92.365 | 4.642 | 4.657 | moderate decrease in affinity | 1.91 |  | Percent of Control ([1]; listed as ITP2, 100 µM): 66.4533; Percent of Control ([1]; listed as ITP3, 100 µM): 65.1342
C[S+](CC[C@H](N)C(=O)[O-])C[C@H]1O[C@@H](n2cnc3c(N)ncnc32)[C@H](O)[C@@H]1O (some centres unmarked) [SAM, S-adenosyl methionine] |  |  |  |  |  |  |  | effect on nsP1 guanylation activity (in words) [1]: guanylation activity was maintained; % of control, mean of replicates [1]: 0.9908
O=c1ccn([C@@H]2O[C@H](COP(=O)(O)OP(=O)(O)OP(=O)(O)O)[C@@H](O)[C@H]2O)c(=O)[nH]1 [UTP] | 59.4237 | 68.643 | 4.3046 | 4.272 | markedly decreased ability to outcompete GTP-Bodipy | 4.46 |  | Percent of Control ([1]; listed as UTP2, 100 µM): 52.4244; Percent of Control ([1]; listed as UTP3, 100 µM): 57.2037
O=c1[nH]c(=O)c2ncn([C@@H]3O[C@H](COP(=O)(O)OP(=O)(O)OP(=O)(O)O)[C@@H](O)[C@H]3O)c2[nH]1 [XTP] | 32.3662 | 34.0129 | 5.251 | 5.346 | slightly higher affinity compared to GTP | 0.402 | greatest ability to in inhibit nsP1 guanylation activity | Percent of Control ([1]; listed as XTP2, 100 µM): 27.443; Percent of Control ([1]; listed as XTP3, 100 µM): 35.6426
Nc1nc2c(ncn2[C@H]2C[C@H](O)[C@@H](COP(=O)(O)OP(=O)(O)OP(=O)(O)O)O2)c(=O)[nH]1 [dGTP] | 25.7895 | 29.9486 | 5.4125 | 5.208 | less affinity compared to the others | 4.21 | greatest ability to in inhibit nsP1 guanylation activity | Percent of Control ([1]; listed as dGTP2, 100 µM): 23.146; Percent of Control ([1]; listed as dGTP3, 100 µM): 24.2738
Nc1nc2c(ncn2[C@H]2CC[C@@H](COP(=O)(O)OP(=O)(O)OP(=O)(O)O)O2)c(=O)[nH]1 [ddGTP] | 32.7576 | 32.7691 |  |  | binding slightly better than the others | 0.425 | greatest ability to in inhibit nsP1 guanylation activity | Percent of Control ([1]; listed as ddGTP2, 100 µM): 30.4919; Percent of Control ([1]; listed as ddGTP3, 100 µM): 35.0118
Cn1c[n+]([C@@H]2O[C@H](COP(=O)(O)O)[C@@H](O)[C@H]2O)c2nc(N)[nH]c(=O)c21 [me^7-GMP] | 102.357 |  |  |  | very poor competitor | 21.9 | least ability to inhibit guanylation | Percent of Control ([1]; listed as m7-GMP2, 100 µM): 87.9178; Percent of Control ([1]; listed as m7-GMP3, 100 µM): 97.473; Percent of Control ([1]; listed as m7-GMP, 100 µM): 121.679
Cn1c[n+]([C@@H]2O[C@H](COP(=O)([O-])OP(=O)(O)OP(=O)(O)O)[C@@H](O)[C@H]2O)c2nc(N)[nH]c(=O)c21 [me^7-GTP] | 37.4013 |  |  |  | able to compete for the GTP binding site | 1.55 |  | Percent of Control ([1]; listed as m7-GTP2, 100 µM): 37.3024; Percent of Control ([1]; listed as m7-GTP, 100 µM): 37.5003
